# Source: ChEMBL document CHEMBL3526058, “Investigating the enteroenteric recirculation of apixaban, a factor Xa inhibitor: administration of activated charcoal to bile duct-cannulated rats and dogs receiving an intravenous dose and use of drug transporter knockout rats” (Drug Metab Dispos, 2013)
# What was measured:
# [1] = system: Rattus norvegicus; test: Intestinal clearance in BCRP-knockout Sprague-Dawley rat at 2 mg/kg, iv relative to total clearance; format: ADME, organism-based; parameters: dose 2 mg/kg, route intravenous; settings: in vivo
# [2] = Half life in BCRP-knockout Sprague-Dawley rat at 2 mg/kg, iv; format: ADME, organism-based; parameters: dose 2 mg/kg, route intravenous; settings: in vivo
# [3] = Drug recovery in urine of bile duct-cannulated beagle dog at 1 mg/kg, iv administered as 5 mins infusion followed by activated charcoal administration 10 to 420 mins post compound measured up to 72 hrs; format: ADME, organism-based, Canis lupus familiaris; parameters: dose 1 mg/kg, route intravenous; settings: read-out: Drug recovery
# [4] = Clearance in wild-type bile duct-cannulated Sprague-Dawley rat at 2 mg/kg, iv administered 0.125 hr post GF-120918 treatment; format: ADME, organism-based; parameters: dose 2 mg/kg, route intravenous; settings: in vivo, with GF-120918
# [5] = Half life in wild-type bile duct-cannulated Sprague-Dawley rat at 2 mg/kg, iv; format: ADME, organism-based; parameters: dose 2 mg/kg, route intravenous; settings: in vivo
# [6] = system: Canis familiaris; test: AUC (0 to infinity) in bile duct-cannulated beagle dog at 1 mg/kg, iv administered as 5 mins infusion; format: ADME, organism-based, Canis lupus familiaris; parameters: time infinity, dose 1 mg/kg, route intravenous; settings: in vivo
# [7] = Mean residence time in bile duct-cannulated beagle dog at 1 mg/kg, iv administered as 5 mins infusion; format: ADME, organism-based, Canis lupus familiaris; parameters: dose 1 mg/kg, route intravenous; settings: in vivo
# [8] = Drug recovery in bile of bile duct-cannulated beagle dog at 1 mg/kg, iv administered as 5 mins infusion measured up to 72 hrs; format: ADME, organism-based, Canis lupus familiaris; parameters: dose 1 mg/kg, route intravenous; settings: read-out: Drug recovery
# [9] = system: Rattus norvegicus; test: Metabolism and biliary clearance at 8 hrs in wild-type bile duct-cannulated Sprague-Dawley rat at 2 mg/kg, iv administered 0.125 hr post GF-120918 treatment relative to total clearance; format: ADME, organism-based; parameters: dose 2 mg/kg, route intravenous; settings: in vivo
# [10] = Cmax in bile duct-cannulated beagle dog at 1 mg/kg, iv administered as 5 mins infusion followed by activated charcoal administration 10 to 420 mins post compound dosing; format: ADME, organism-based, Canis lupus familiaris; parameters: dose 1 mg/kg, route intravenous; settings: in vivo
# [11] = Drug recovery in bile of bile duct-cannulated beagle dog at 1 mg/kg, iv administered as 5 mins infusion followed by activated charcoal administration 10 to 420 mins post compound measured up to 72 hrs; format: ADME, organism-based, Canis lupus familiaris; parameters: dose 1 mg/kg, route intravenous; settings: read-out: Drug recovery
# [12] = Drug recovery in feces of Sprague-Dawley rat at 30 mg/kg, po measured up to 168 hrs; format: ADME, organism-based; parameters: dose 30 mg/kg, route oral; settings: read-out: Drug recovery
# [13] = Half life in P-gp-knockout Sprague-Dawley rat at 2 mg/kg, iv; format: ADME, organism-based; parameters: dose 2 mg/kg, route intravenous; settings: in vivo
# [14] = system: Rattus norvegicus; test: Intestinal clearance in P-gp-knockout Sprague-Dawley rat at 2 mg/kg, iv; format: ADME, organism-based; parameters: dose 2 mg/kg, route intravenous; settings: in vivo
# [15] = Volume of distribution at steady state in wild-type bile duct-cannulated Sprague-Dawley rat at 2 mg/kg, iv administered 0.125 hr post GF-120918 treatment; format: ADME, organism-based; parameters: dose 2 mg/kg, route intravenous; settings: in vivo, with GF-120918, read-out: Vdss
# [16] = system: Rattus norvegicus; test: Renal clearance in wild-type bile duct-cannulated Sprague-Dawley rat at 2 mg/kg, iv relative to total clearance; format: ADME, organism-based, Kidney; parameters: dose 2 mg/kg, route intravenous; settings: in vivo
# [17] = system: Rattus norvegicus; test: Renal clearance in BCRP-knockout Sprague-Dawley rat at 2 mg/kg, iv relative to total clearance; format: ADME, organism-based, Kidney; parameters: dose 2 mg/kg, route intravenous; settings: in vivo
# [18] = Renal clearance in P-gp-knockout Sprague-Dawley rat at 2 mg/kg, iv; format: ADME, organism-based, Kidney; parameters: dose 2 mg/kg, route intravenous; settings: in vivo
# [19] = Clearance in wild-type 30 mins activated charcoal pre-treated bile duct-cannulated Sprague-Dawley rat at 2 mg/kg, iv followed by activated charcoal administration 5 to 180 mins post compound dosing; format: ADME, organism-based; parameters: dose 2 mg/kg, route intravenous; settings: in vivo
# [20] = Mean residence time in bile duct-cannulated beagle dog at 1 mg/kg, iv administered as 5 mins infusion followed by activated charcoal administration 10 to 420 mins post compound dosing; format: ADME, organism-based, Canis lupus familiaris; parameters: dose 1 mg/kg, route intravenous; settings: in vivo
# [21] = Drug recovery in feces of Sprague-Dawley rat at 2 mg/kg, iv measured up to 168 hrs; format: ADME, organism-based; parameters: dose 2 mg/kg, route intravenous; settings: read-out: Drug recovery
# [22] = Drug recovery in urine of beagle dog at 5 mg/kg, po measured up to 72 hrs; format: ADME, organism-based, Canis lupus familiaris; parameters: dose 5 mg/kg, route oral; settings: read-out: Drug recovery
# [23] = Drug recovery in feces of bile duct-cannulated P-gp-knockout Sprague-Dawley rat at 2 mg/kg, iv measured up to 24 hrs; format: ADME, organism-based; parameters: dose 2 mg/kg, route intravenous; settings: read-out: Drug recovery
# [24] = Drug recovery in urine of Sprague-Dawley rat at 2 mg/kg, iv measured up to 168 hrs; format: ADME, organism-based; parameters: dose 2 mg/kg, route intravenous; settings: read-out: Drug recovery
# [25] = system: Canis familiaris; test: Intestinal clearance in bile duct-cannulated beagle dog at 1 mg/kg, iv administered as 5 mins infusion followed by activated charcoal administration 10 to 420 mins post compound dosing relative to total clearance; format: ADME, organism-based, Canis lupus familiaris; parameters: dose 1 mg/kg, route intravenous; settings: in vivo
# [26] = system: Rattus norvegicus; test: Intestinal clearance in wild-type 30 mins activated charcoal pre-treated bile duct-cannulated Sprague-Dawley rat at 2 mg/kg, iv followed by activated charcoal administration 5 to 180 mins post compound dosing; format: ADME, organism-based; parameters: dose 2 mg/kg, route intravenous; settings: in vivo
smiles,measurement,setting,value
COc1ccc(-n2nc(C(N)=O)c3c2[14C](=O)N(c2ccc(N4CCCCC4=O)cc2)CC3)cc1,CL,[1],37%
same,half-life,[2],126 min
same,dose excreted,[3],8.1%
same,clearance,[4],11.7 mL/min/kg
same,half-life,[5],72 min
same,AUC,[6],9.3 µg·h/mL
same,MRT,[7],2.6 h
same,dose excreted,[8],12.4%
same,CL,[9],36%
same,Cmax,[10],4330 ng/mL
same,dose excreted,[11],13.1%
same,dose excreted at 168 h,[12],74%
same,half-life,[13],66 min
same,CL,[14],0.22 L/h/kg
same,Vd,[15],1.6 L/kg
same,CL,[16],51%
same,CL,[17],33%
same,CL renal,[18],6.5 mL/min/kg
same,clearance,[19],33.3 mL/min/kg
same,MRT,[20],1.9 h
same,dose excreted at 168 h,[21],41.1%
same,dose excreted at 72 h,[22],8.8%
same,dose excreted at 24 h,[23],24.9%
same,dose excreted at 168 h,[24],51.3%
same,CL,[25],62%
same,CL,[26],0.55 L/h/kg
